These are literature values, as cited in US20090247553A1, “Highly Pure Paliperidone or a Pharmaceutically Acceptable Salt Thereof Substantially Free of Keto Impurity” (ACTAVIS GROUP PTC EHF, priority 2008, published 2009).

For data set [1] the following is noted: powder.

Structures are written as SMILES.

Turning to `Cc1nc2n(c(=O)c1CCN1CCC(c3noc4cc(F)ccc34)CC1)CCCC2O` (racemic) [Paliperidone, (±)-3-[2-[4-(6-fluoro-1,2-benzisoxazol-3-yl)-1-piperidinyl]ethyl]-6,7,8,9-tetrahydro-9-hydroxy-2-methyl-4H-pyrido[1,2-a]pyrimidin-4-one], under “0.1N HCl”, the “solubility in 0.1N HCl” value is listed as 2.3 g/100 ml. For the same compound, where the note is “ethanol”, the solubility in ethanol is given as 0.076 g/100 ml. The solubility in water (water) is given as 0.003 g/100 ml. Further, the hygroscopicity entry in data set [1] is recorded as “non-hygroscopic”.
